Assay results published in patent US10753892B2, “Non-invasive sensing of free metal ions using ion chemical exchange saturation transfer” (The Johns Hopkins University, priority 2013, dated 2020).
Values joined by “and” are separate entries in the source; they are usually repeats but may differ in a detail not shown here. Identical values can stand only once. “Also recorded” adds a separate entry of the source. Marks after values point to notes of the source that are not given here.

Legend:
[1] = 19F-iCEST MRI of 5F-BAPTA with Zn2+ (16.4 T, 37° C.); assay type: binding; conditions: 10 mM 5F-BAPTA, 50 μM Zn2+, pH 7.2 and 6.4
Protocol: (§1) 5F-BAPTA was dissolved in Hepes buffer (40 mM) to a final concentration of 10 mM and the pH was adjusted to the following values: 5.6, 6.0, 6.4, 6.8, 7.0, 7.2, and 7.6. Stock 10 mM solutions of CaCl2, MgCl2, and ZnCl2 were prepared in 40 mM Hepes buffer. Five μL of the stock solution was added to 1 mL of 10 mM 5F-BAPTA resulting in a 200:1 ratio (10 mM: 50 μM) between the free 5F-BAPTA and the M^2+ ion following by a pH adjustment. One mL of each sample (with adjusted pH) was transferred into a 8 mm NMR tube within a 25 mm NMR tube in order to center the sample in the coil for the MRI experiments.
(§2) MRI experiments were performed on a vertical 16.4 T scanner (Bruker Avance system) at 37° C. A 25 mm birdcage radiofrequency coil was used to acquire both ^1H and ^19F MR images by sweeping the coil frequency from proton (700 MHz) to fluorine (658.8 MHz) frequency.
(§3) The saturation transfer effect on the free 5F-BAPTA, i.e., the MTR or iCEST, was calculated for each voxel in the image by using a Lorentzian line shape fitting as described in Jones et al. (Magn Reson Med 2012, 67, 1579), and Liu et al. (Molecular imaging 2012, 11, 47).
(§4) Saturation time (tsat) was either 1500 ms to 2000 ms as indicated in the text.

[2] = 19F-CEST experiments with 5F-BAPTA at pH 7.0 (11.7 T NMR, 16.4 T MRI); assay type: binding; conditions: 10 mM 5F-BAPTA, 100 μM M2+, saturation at Δω=5.8 ppm
Protocol: ^19F-CEST experiments were performed on solutions containing 1,2-Bis-[2-bis(carboxymethyl)amino-5-fluorophenoxy]ethane (5F-BAPTA), with and without divalent cations (M^2+).
Experiments were performed on an 11.7T NMR spectrometer (Bruker). 5F-BAPTA (AnaSpec, Inc.) was dissolved in 40 mM HEPES buffer (pH=7.0) to a concentration of 5 mM, and CaCl2 was dissolved to a final Ca^2+ concentration of 50 μm.
^19F-CEST spectra (z-spectra) were acquired with a saturation transfer sequence consisting of a saturation pulse (B1=4.7 μT, 4 sec) with variable offset (from −7.5 to +7.5 ppm relative to the 5FBAPTA frequency set at 0 ppm). Experiments were performed without (room temperature, RT) and with sample heating (37° C.). The MTRasym=100×(S−Δω−S+Δω)/S0 was computed at different offsets Δω, where S0 is the 5F-BAPTA signal without saturation.
Imaging experiments were performed on a 16.4T MRI scanner (Bruker). 5F-BAPTA was dissolved to 10 mM in 40 mM HEPES, pH=7.0, with or without 100 μM of M^2+ (Mg^2+, Zn^2+, or Ca^2+).
^19F-CEST images were acquired using a continuous wave presaturation pulse (B1=3.6 μT, 3 sec) followed by a multi-echo MRI pulse sequence (RARE, rare factor 4, TR/TE=6000/10 ms). FOV of 4×4 cm, matrix 32×32 and slice thickness 10 mm. Mean ^19F-CEST spectra were derived after B0 correction for each voxel using MatLab. MTRasym plots and maps were calculated.

[3] = Relaxation times T1 and T2 of free 5F-BAPTA as a function of pH; assay type: physicochemical; conditions: free 5F-BAPTA 20 mM
Protocol: The same image geometry as in the ^19F-CEST experiments was used for the determination of T1 and T2 of the imaged samples. For T1 measurements, a saturation recovery experiment was performed with TR values of 61, 214, 395, 615, 899, 1296 1964, and 4961 ms. A spin-echo experiment (TR=5000 ms) with multiple echoes was performed with variable echo times (TE=5, 10 15, 20, 25, 30, 35, and 40 ms) to determine the T2 value of each sample.
Numerical solutions to the six Bloch equations including direct saturation of free 5F-BAPTA were obtained as described previously (McMahon, M. T. et al., Magnetic Resonance in Medicine 2006, 55, 836). The relaxation parameters for ^19F used in the Bloch equations were R1=1/T1 with bound calcium (Rib)=0.71 s^−1, R2 bound calcium (R2b)=29 s^−1, whereas the R1 and R2 values of free 5F-BAPTA (R1f and R2f) were determined experimentally through inversion-recovery and saturation-recovery experiments as a function of pH on solutions containing 20 mM 5F-BAPTA as listed in Table 1 as follows: […]

[4] = as above; assay type: physicochemical; conditions: pH 5.6, estimated from the Bloch equation fitting
[5] = 19F-iCEST MRI of 5F-BAPTA with Mg2+ (16.4 T, 37° C.); assay type: binding
Protocol: as §1, §2, §3, §4

[6] = 19F-iCEST MRI of 5F-BAPTA with Ca2+ (16.4 T, 37° C.), Bloch simulations; assay type: binding
Protocol: as §1, §2, §3
Numerical solutions to the six Bloch equations including direct saturation of free 5F-BAPTA were obtained as described previously (McMahon, M. T. et al., Magnetic Resonance in Medicine 2006, 55, 836). The relaxation parameters for ^19F used in the Bloch equations were R1=1/T1 with bound calcium (Rib)=0.71 s^−1, R2 bound calcium (R2b)=29 s^−1, whereas the R1 and R2 values of free 5F-BAPTA (R1f and R2f) were determined experimentally through inversion-recovery and saturation-recovery experiments as a function of pH on solutions containing 20 mM 5F-BAPTA as listed in Table 1 as follows:
as §4
An aqueous solution containing 0.5 mM of 5F-BAPTA and 500 nM in Hepes buffer (40 mM, pH=7.2) was transferred into a 20 mm NMR tube, which was located within a 25 mm NMR tube in order to centralize the sample in the coil for the MRI experiment. The same parameters used for ^19F-iCEST experiments were used except the followings: TR=3000 ms, RARE=8, FOV=6.0 cm (resolution=1.875×1.875 mm), and 168 averages.

[7] = cited from earlier work
[8] = Bloch simulations, two pool model
Protocol: (§5) Experiments were performed on solutions containing TF-BAPTA and multiple biologically relevant metal ions (K^+, Na^+, Ca^2+, Mg^2+, Cu^2+, Fe^2+ and Zn^2+) at 37° C. and pH=7.4. MR Spectroscopy as follows: TF-BAPTA was dissolved to a final concentration of 5 mM, and ions were add at 500 μM. Using 5-Fluorocytosine (5-FC) as an internal ^19F reference, ^19F-NMR spectra were acquired (11.7 T NMR spectrometer, Bruker). MRI: Experiments were performed on a 17.6 T MRI scanner (Bruker). TF-BAPTA was dissolved to 10 mM with 200″ AM of ion. A RARE (factor 8) sequence was used to acquire 1H MRI (TR/TE=5,000/7.7 ms, 1 mm slice, FOV=2×2 cm, matrix size=128×128). For ^19F MRI, the center frequency (O1) was set at the frequency of the 19F atom at the 6 position (0.0 ppm) of TF-BAPTA (FIG. 1a), while signal from the ^19F located at the 5 position of TF-BAPTA (FIG. 1a-b, 4.5 ppm downfield) was suppressed. A modified RARE sequence (TR/TE=4,000/3.4 ms, RARE factor=16, 6 mm slice, FOV=2×2 cm, matrix size=32×32, and a saturation pulse B1=1.2, 2.4 or 3.6 ItT/2 s) were used to acquire ^19F iCEST. Mean ^19F Z-spectra (iCEST spectra), were obtained after B0 correction. CEST contrasts, i.e., the magnetization transfer ratio (MTR) images were calculated after Lorentzian line shape fitting.

[9] = London et al., 1994; cited from earlier work
[10] = Bloch simulations, two pool model; remark: listed apart in the source
Protocol: as §5

O=C(O)CN(CC(=O)O)c1ccc(F)cc1OCCOc1cc(F)ccc1N(CC(=O)O)CC(=O)O [5F-BAPTA, 2,2′,2″,2′″-(2,2′-(Ethane-1,2-diylbis(oxy))bis(4-fluoro-2,1-phenylene))bis(azanetriyl)tetraacetic acid]
iCEST contrast, Zn2+ containing sample [1]: did not generate iCEST contrast | 19F-CEST MRI contrast among tubes with no M2+, Mg2+, Zn2+ or Ca2+ [2]: only the Ca^2+ containing solution generated contrast | T1 ([3]; pH 5.6): 715 ms | T1 ([3]; pH 6.0): 715 ms | T2 ([3]; pH 6.0): 10 ms | T1 ([3]; pH 6.4): 715 ms | T2 ([3]; pH 6.4): 11 ms | T1 ([3]; pH 6.8): 715 ms | T2 ([3]; pH 6.8): 25 ms | T1 ([3]; pH 7.0): 715 ms | T2 ([3]; pH 7.0): 32 ms | T1 ([3]; pH 7.2): 715 ms | T2 ([3]; pH 7.2): 38 ms | T1 ([3]; pH 7.6): 715 ms | T2 (ms) [4]: 6^a ms | iCEST contrast, Mg2+ containing sample ([5]; 10 mM 5F-BAPTA, 50 μM Mg2+, pH 7.2 and 6.4): did not generate iCEST contrast | amplification factor for Mg2+ ([5]; iCEST, FIG. 10b): 10 | Ca2+ concentration detected by iCEST ([6]; 0.5 mM 5F-BAPTA, pH 7.2): 500 nM | iCEST (saturation transfer) contrast, Ca2+ containing sample ([6]; 10 mM 5F-BAPTA, 50 μM Ca2+, pH 7.2 and 6.4, B1=3.6 μT/2000 ms): pronounced saturation transfer contrast was detected; also recorded: large iCEST contrast was detected | kex between [Ca-5F-BAPTA] and 5F-BAPTA ([6]; Bloch simulations, all examined pH values): 190 s⁻¹ and 190 ± 10 s⁻¹ | Ca2+ specificity in a Zn2+ background ([6]; iCEST, FIGS. 13a-c): high Ca^2+ specificity | Ca2+ specificity in a Mg2+ background ([6]; iCEST, FIGS. 14a-c): high Ca^2+ specificity | amplification factor for Ca2+ ([6]; iCEST, kex 190 s−1): ~100 | iCEST contrast in the Z-spectrum ([6]; χCa=1:1000, 5 mM 5F-BAPTA, pH 7.2): ~11%

O=C(O)CN(CC(=O)O)c1ccccc1OCCOc1ccccc1N(CC(=O)O)CC(=O)O [BAPTA, 1,2-bis(o-aminophenoxy)ethane-N,N,N′,N′-tetraacetic acid]
selectivity for Ca2+ over Mg2+ [7]: > 10^5 | iCEST contrast produced by Ca2+ in mixtures ([6]; 50 μM Ca2+ with 200 μM Mg2+ or 50 μM Zn2+, 10 mM chelate, pH 7.2, Δω=6 ppm): ~22%

O=C(O)CN(CC(=O)O)c1cc(F)c(F)cc1OCCOc1cc(F)c(F)cc1N(CC(=O)O)CC(=O)O [TF-BAPTA, 5,5′, 6,6′-tetrafluoro-BAPTA]
exchange rate (kex) between free and Zn2+-bound TF-BAPTA [8]: ~20 s⁻¹ | exchange rate of Ca2+ with TF-BAPTA [9]: ~30,000 s−1 | exchange rate (kex) between free and Fe2+-bound TF-BAPTA [10]: ~20 s⁻¹
